The subject of one assay is Ebola virus (EBOV). Put plainly: microbe, parasite or virus in culture. Conditions: for EC50: Zaire ebolavirus, Huh-7, 72 h, read-out: EC50: effective concentration showing 50% inhibition of virus-expressed ZsGreen fluorescence. The format is cell-based, EBOV-Makona.
A further assay has as its system coronaviruses. Conditions: cited from earlier work.
For a further assay, the system named is filoviruses. Conditions: cited from earlier work.
The next assay concerns flaviviruses. Conditions: ref unpublished results; cited from earlier work.

Molecules are shown by their SMILES. A value given as a limit tells only on which side of the number the result lay.

Regarding `CC(C)(C)C(=O)OCCOCn1cnc(-c2cncnc2N)c1` [5-^tBuAc, 2-((4-(4-Aminopyrimidin-5-yl)-1H-imidazol-1-yl)methoxy)ethyl pivalate], the EC50 in the assay on Ebola virus (EBOV) is 72.3 ± 18.7 µM.
Still for that read-out and setting: the same measure for `COc1ncncc1-c1cn(COCCO)cn1` [compound 3, 2-((4-(4-Methoxypyrimidin-5-yl)-1H-imidazol-1-yl)methoxy)ethan-1-ol]: 78.9 ± 17.1 µM; for `COc1ncc(-c2cn(COCCOC(C)=O)cn2)c(OC)n1` [2-Ac]: 16.3 ± 11.5 µM; for `CCC(=O)OCCOCn1cnc(-c2cnc(N)nc2OC)c1` [1-EtAc, 2-((4-(2-Amino-4-methoxypyrimidin-5-yl)-1H-imidazol-1-yl)methoxy)ethyl propionate]: 62.2 ± 19 µM.
On the same count and under the same terms, then `CC(C)C(=O)OCCOCn1cnc(-c2cncnc2N)c1` [5-^iPrAc, 2-((4-(4-Aminopyrimidin-5-yl)-1H-imidazol-1-yl)methoxy)ethyl isobutyrate], with above 100 µM.
Same read-out and setting: the same measure for `CCC(=O)OCCOCn1cnc(-c2cncnc2OC)c1` [3-EtAc, 2-((4-(4-Methoxypyrimidin-5-yl)-1H-imidazol-1-yl)methoxy)ethyl propionate]: 51.9 ± 19.6 µM; for `CC(C)(C)C(=O)OCCOCn1cnc(-c2cnc(N)nc2)c1` [4-^tBuAc, 2-((4-(2-Aminopyrimidin-5-yl)-1H-imidazol-1-yl)methoxy)ethyl pivalate]: 34.4 ± 20 µM.
As to `Nc1ncc(-c2cn(COCCO)cn2)cn1` [compound 4, 2-((4-(2-Aminopyrimidin-5-yl)-1H-imidazol-1-yl)methoxy)ethan-1-ol], in the assay with Ebola virus (EBOV), the “activity against EBOV (in words)” value is on record as “did not display any activity against EBOV” and the EC50 was above 100 µM.
Regarding `COc1ncc(-c2cn(COCCO)cn2)c(OC)n1` [compound 2], the EC50 with Ebola virus (EBOV) was 23.4 ± 20.3 µM.
Same read-out and setting: the same measure for `COc1ncncc1-c1cn(COCCOC(C)=O)cn1` [3-Ac, 2-((4-(4-Methoxypyrimidin-5-yl)-1H-imidazol-1-yl)methoxy)ethyl acetate]: 35.4 ± 20.4 µM; for `COc1nc(N)ncc1-c1cn(COCCOC(=O)C(C)C)cn1` [1-^iPrAc, 2-((4-(2-Amino-4-methoxypyrimidin-5-yl)-1H-imidazol-1-yl)methoxy)ethyl isobutyrate]: above 100 µM; for `CCC(=O)OCCOCn1cnc(-c2cncnc2N)c1` [5-EtAc, 2-((4-(4-Aminopyrimidin-5-yl)-1H-imidazol-1-yl)methoxy)ethyl propionate]: above 100 µM.
For the compound `CC(=O)OCCOCn1cnc(-c2cncnc2N)c1` [5-Ac, 2-((4-(4-Aminopyrimidin-5-yl)-1H-imidazol-1-yl)methoxy)ethyl acetate], in the assay on Ebola virus (EBOV), the EC50 was above 100 µM.
Consider `COc1ncncc1-c1cn(COCCOC(=O)C(C)C)cn1` [3-^iPrAc, 2-((4-(4-Methoxypyrimidin-5-yl)-1H-imidazol-1-yl)methoxy)ethyl isobutyrate], for which the EC50 in the assay with Ebola virus (EBOV) was 38.3 ± 28.2 µM.
With `CC(=O)OCCOCn1cnc(-c2cnc(N)nc2)c1` [4-Ac, 2-((4-(2-Aminopyrimidin-5-yl)-1H-imidazol-1-yl)methoxy)ethyl acetate], in the assay with Ebola virus (EBOV), the EC50 amounted to 52.9 ± 28.2 µM.
With `COc1ncc(-c2cn(COCCOC(=O)C(C)(C)C)cn2)c(OC)n1` [2-^tBuAc, 2-((4-(2,4-Dimethoxypyrimidin-5-yl)-1H-imidazol-1-yl)methoxy)ethyl pivalate], the EC50 with Ebola virus (EBOV) stood at 81.3 ± 10.2 µM.
The same measure, in the same setting: the same measure for `CCC(=O)OCCOCn1cnc(-c2cnc(N)nc2)c1` [4-EtAc, 2-((4-(2-Aminopyrimidin-5-yl)-1H-imidazol-1-yl)methoxy)ethyl propionate]: above 100 µM.
Still for that read-out and setting: the same measure for `CCC(=O)OCCOCn1cnc(-c2cnc(OC)nc2OC)c1` [2-EtAc, 2-((4-(2,4-Dimethoxypyrimidin-5-yl)-1H-imidazol-1-yl)methoxy)ethyl propionate]: above 100 µM.
Regarding `COc1nc(N)ncc1-c1cn(COCCOC(C)=O)cn1` [1-Ac], in the assay with Ebola virus (EBOV), the “activity against EBOV (in words)” value is recorded as “not active against EBOV” and the EC50 was above 100 µM.
With `COc1ncncc1-c1cn(COCCOC(=O)C(C)(C)C)cn1` [3-^tBuAc, 2-((4-(4-Methoxypyrimidin-5-yl)-1H-imidazol-1-yl)methoxy)ethyl pivalate], the EC50 with Ebola virus (EBOV) turned out to be 51.4 ± 10 µM.
As to `COc1nc(N)ncc1-c1cn(COCCOC(=O)C(C)(C)C)cn1` [1-^tBuAc, 2-((4-(2-Amino-4-methoxypyrimidin-5-yl)-1H-imidazol-1-yl)methoxy)ethyl pivalate], in the assay on Ebola virus (EBOV), the EC50 is 7.21 ± 1.85 µM.
As for `COc1nc(N)ncc1-c1cn(COCCO)cn1` [compound 1], in the assay with Ebola virus (EBOV), the EC50 amounted to 1.49 ± 0.98 µM. Besides, in the assay with coronaviruses, the “antiviral activity against coronaviruses” value is “low micromolar activity”. Further, the “antiviral activity against filoviruses” value in the assay on filoviruses is reported as “low micromolar activity”. For the same compound, the “antiviral activity against flaviviruses” value in the assay with flaviviruses is given as “low micromolar activity”.
Take `COc1ncc(-c2cn(COCCOC(=O)C(C)C)cn2)c(OC)n1` [2-^iPrAc, 2-((4-(2,4-Dimethoxypyrimidin-5-yl)-1H-imidazol-1-yl)methoxy)ethyl isobutyrate]: the EC50 with Ebola virus (EBOV) is 32 ± 9.12 µM.
In the case of `Nc1ncncc1-c1cn(COCCO)cn1` [compound 5, 2-((4-(4-Aminopyrimidin-5-yl)-1H-imidazol-1-yl)methoxy)ethan-1-ol], in the assay with Ebola virus (EBOV), the “activity against EBOV (in words)” value is “did not display any activity against EBOV” and the EC50 was above 100 µM.
As to `CC(C)C(=O)OCCOCn1cnc(-c2cnc(N)nc2)c1` [4-^iPrAc, 2-((4-(2-Aminopyrimidin-5-yl)-1H-imidazol-1-yl)methoxy)ethyl isobutyrate], the EC50 in the assay on Ebola virus (EBOV) was 54 ± 23.7 µM.

(Values after PMC6749450, “Probing the Effects of Pyrimidine Functional Group Switches on Acyclic Fleximer Analogues for Antiviral Activity” (Molecules, 2019).)
